Patent US20250352615A1, “COMPOSITIONS AND METHODS FOR THE MODULATION OF PIEZO1 AND TRPV4” (Duke University, priority 2021, published 2025)

Columns and labels:
pancreas = experiment: Yoda1 pancreatic duct infusion pancreatitis model; format: in vivo, mouse; settings: Yoda1 0.4 mg/kg infused into the pancreatic duct
Procedure: Laparotomy surgery was performed both in pancreatic partial duct ligation- and retrograde pancreatic duct infusion-mediated pancreatitis experiments as previously described by Romac et al., Nat. Commun. 9(1):1715 (2018). Yoda1 at a dose of 0.4 mg/kg in 50 μL 1.1% dimethylsulfoxide, 4.8% ethanol, and 94.1% buffered saline was injected. In Yoda1-mediated pancreatitis, the midportion of the pancreas (about 100-125 mg) was carefully excised and used for biochemical assays and histological staining. Histological scoring was evaluated from the entire section. Partial PDL was performed as previously described. Using a stereo microscope, the tail region of the pancreas was visualized, and the main pancreatic duct was ligated carefully with 6-0 Prolene suture without damaging the left portal vein that separates the splenic lobe and gastroduodenal part of the pancreas. […]
Serum amylase concentration was measured by a colorimetric method after reaction with substrate using the Phadebas Amylase Test Tablet (Magle Life Sciences) and the Tecan-infinite M200 Pro plate reader.
MPO was measured using previously described methods with modifications. […] To calculate the mU of MPO/mg of protein, the protein concentrations of the supernatants were measured using the Micro BCA Protein Assay Kit (Thermo Fisher Scientific; 23235). […]

human stellate cells = experiment: Gene expression (RT-PCR) in Yoda1-treated human stellate cells; format: cell-based
Procedure: Mouse and human stellate cells were prepared and maintained in culture as previously described Swain et al., JCI Insight 7: e158288 (2022). Summarized here: Mouse and human PSCs were isolated using collagenase digestion. Modified Krebs Henseleit Buffer (KHB) solution (100 mL) was prepared as described previously in Romac et al., Nat. Commun. 9(1): 1715 (2018). Pancreatic tissue was digested with 2 mg of collagenase NB 8 (SERVA, catalog 17456) dissolved in 10 mL of modified KHB solution containing 1 mg soybean trypsin inhibitor (SBTI 1-S; Millipore Sigma, catalog T9003) and 20 mg BSA (Thermo Fisher Scientific; BP1600-100). Digestion solution (5 mL) was used to inflate the pancreas. Pancreas with 5 mL of digestion solution was incubated in a shaking water bath for 10 minutes at 37° C. The solution was then discarded. The pancreas tissue was cut into small pieces and digested with fresh 5 mL digestion buffer. Tissue was incubated in a shaking water bath for 40 minutes at 37° C. The cells were then separated from tissue by pipetting up-down with a 10 mL pipette and passed sequentially through a 70 μm and a 40 μm cell strainer. The filtrate was centrifuged at 150×g for 3 minutes at room temperature. The cells were washed with 10 mL Leibovitz's media (Thermo Fisher Scientific, catalog 11415-064), passed through a 20 μm filter, and centrifuged at 80 g for 3 minutes at room temperature. The supernate was removed, and isolated stellate cells were plated on a thin-layered Matrigel-coated glass bottom culture plate (MatTek, P35G-0-14-C). Before plating the cells, Matrigel solution (Corning, catalog 354234) at a ratio of 1.5:100 DMEM/F12 (Thermo Fisher Scientific, catalog 11330-032) was poured onto the culture plate and incubated for 2 hours at 37° C. to form a thin layer of Matrigel coating. Matrigel mixture was removed, and the plate was washed with PBS before cells were plated. Cell culture media, DMEM/F12 with 5% FBS was used for mouse stellate cells. Fresh, human pancreatic tissue (provided by Duke University's BioRepository & Precision Pathology Center under IRB approval) was digested with collagenase as described above with modifications. Collagenase (2.5 mg) in 10 mL of modified KHB solution was used for digestion. The digested tissues were filtered through a 100 μm cell strainer. The cells were cultured with DMEM/F12 with 10% FBS in a Matrigel-coated plate. After 24 hours, the cell media was replaced with fresh media to remove unattached and dead cells. After 2 days, cells were immunostained for GFAP and used for experiments. Perinuclear fat droplets were stained with BODIPY 493/503 (4,4-Difluoro-1,3,5,7,8-Pentamethyl-4-Bora-3a,4a-Diaza-s-Indacene; Invitrogen, catalog D3922) to confirm stellate cell quiescence.
Yoda 1 was resuspended in DMSO at 25 mM stock solution. […]

[1] = Yoda1, 24 hr, human stellate cells, preliminary

SMILES: Clc1cccc(Cl)c1CSc1nnc(-c2cnccn2)s1 [Yoda1]
- pancreatitis in TRPV4-KO mice (pancreas): did not cause pancreatitis in TRPV4-KO mice
- pancreatitis parameters (pancreatic edema, serum amylase, pancreatic MPO, histological scoring) (pancreas; WT mice): increased all pancreatitis parameters measured
- expression of fibronectin and IL-6 (human stellate cells; Yoda1 25 μM, 24 hr): increased expression of fibronectin and IL-6
- ACTA2 mRNA expression (human stellate cells; [1]): decreases ACTA2
- CD10 mRNA expression (human stellate cells; [1]): increases CD10 expression
- TRPV4 mRNA levels (human stellate cells; human PSCs, 24 hr, Yoda1 5 μm and 25 μM): upregulates TRPV4 expression in PSCs
